Assay results taken from patent publication US11819514B2, “Use of oligosaccharide riclinoctaose in preparation of drug for treating and/or preventing ischemia-reperfusion injury (IRI)” (Nanjing Southern Element Biotechnology Co., Ltd., priority 2021, dated 2023).
“Also recorded” adds a separate entry of the source.

How the values were obtained:
male C57/BL6J mice [1] = test: HIRI mouse model: histological analysis of liver (H&E); format: in vivo
Protocol: (§1) The experimental animals were male C57/BL6J mice aged 6 to 8 weeks and weighed 22 g to 26 g. The mice were housed under standard experimental conditions with a 12-hour light-12-hour dark cycle with free access to water and food. The mice were anesthetized with isoflurane, the abdomen was operated on, and the blood supply to middle and left lobes of the liver was blocked with non-invasive hemostatic clips, resulting in 70% hepatic ischemia; after 30 min of ischemia, the clips were removed, and samples were collected to measure biochemical parameters after reperfusion for 6 h.
The mice were administered by intraperitoneal injection and randomly divided into four groups; a first group was a sham-operation group (sham), the animals in the sham-operation group received the same laparotomy without vascular clip occlusion; a second group was a model group (IR); a third group was a low-dosage group (LRO), with 20 mg/mL of the oligosaccharide riclinoctaose injected intraperitoneally about 4 h to 6 h before surgery; and a fourth group was a high-dosage group (HRO), with 40 mg/mL of the oligosaccharide riclinoctaose injected intraperitoneally about 4 h to 6 h before surgery. The oligosaccharide riclinoctaose drug was dissolved in a 0.9% normal saline. […]

intestinal microflora = conditions: cited from earlier work
male C57/BL6J mice [2] = test: HIRI mouse model: serum enzyme activity assay (ALT, AST, LDH); format: in vivo; conditions: i.p. 20 mg/mL (LRO) and 40 mg/mL (HRO) 4 h to 6 h before surgery, 30 min ischemia, 6 h reperfusion, vs model group
Protocol: as §1
(§2) The mice were administered by intraperitoneal injection and randomly divided into four groups; a first group was a sham-operation group (sham), the animals in the sham-operation group received the same laparotomy without vascular clip occlusion; a second group was a model group (IR); a third group was a low-dosage group (LRO), with 20 mg/mL of the oligosaccharide riclinoctaose injected intraperitoneally about 4 h to 6 h before surgery; and a fourth group was a high-dosage group (HRO), with 40 mg/mL of the oligosaccharide riclinoctaose injected intraperitoneally about 4 h to 6 h before surgery. The oligosaccharide riclinoctaose drug was dissolved in a 0.9% normal saline.
Whole blood was collected, allowed to coagulate naturally at a room temperature, centrifuged at 2,000 r/min for 10 min, and a supernatant was collected for the determination of ALT, AST and LDH enzyme activities. The activities of AST, ALT and LDH were determined by an enzyme colorimetric quantitative analysis method, according to operation steps in kit instructions, and finally concentrations were determined by colorimetry at a wavelength of 505 nm or 440 nm.
(§3) Comparisons between multiple groups were statistically analyzed using a One-way ANOVA statistical method. P<0.05 was considered to have a significant effect.

male C57/BL6J mice [3] = test: RIRI mouse model: plasma biochemical indicators (BUN, Creatinine, LDH); format: in vivo; conditions: i.p. 20 or 40 mg/mL 4 h to 6 h before surgery, 30 min ischemia, 24 h reperfusion
Source text: The experimental animals were male C57/BL6J mice aged 6 to 8 weeks and weighed 22 g to 26 g; the mice were anesthetized with isoflurane, and the abdomen was operated on, and after the righting reflex disappeared, the mice were placed in a prone position on a mouse dissection table and fixed; under sterile conditions, the abdominal cavity was opened along a 1.5 cm longitudinal incision on both dorsal sides, the muscles were bluntly separated, and the renal pedicles on both sides were exposed; the blood flow was blocked with a non-invasive vascular clip, and the kidneys turned from red to dark purple, indicating successful ischemia. After 30 min of ischemia, the arterial clips were released, and the abdominal cavity was closed after the kidneys were restored to perfusion; after 24 h, samples were collected to measure biochemical indicators, and an RIRI model was established. […]
Whole blood was collected, allowed to coagulate naturally at a room temperature, centrifuged at 2,000 r/min for 10 min, and a supernatant was collected for the determination of BUN, Creatinine, and LDH. The plasma BUN, Creatinine and LDH concentrations of mice in each group were analyzed according to instructions of the plasma BUN, Creatinine, and LDH detection kits, followed by operation steps in kit instructions, and finally concentrations were determined by colorimetry at a wavelength of 510 nm or 440 nm.
Comparisons between multiple groups were statistically analyzed using a One-way ANOVA statistical method. […]

male C57/BL6J mice [4] = test: RIRI mouse model: histological analysis of kidney (H&E, PAS); format: in vivo; conditions: vs model group
Source text: The experimental animals were male C57/BL6J mice aged 6 to 8 weeks and weighed 22 g to 26 g; the mice were anesthetized with isoflurane, and the abdomen was operated on, and after the righting reflex disappeared, the mice were placed in a prone position on a mouse dissection table and fixed; under sterile conditions, the abdominal cavity was opened along a 1.5 cm longitudinal incision on both dorsal sides, the muscles were bluntly separated, and the renal pedicles on both sides were exposed; the blood flow was blocked with a non-invasive vascular clip, and the kidneys turned from red to dark purple, indicating successful ischemia. After 30 min of ischemia, the arterial clips were released, and the abdominal cavity was closed after the kidneys were restored to perfusion; after 24 h, samples were collected to measure biochemical indicators, and an RIRI model was established.
as §2
Histomorphological changes in mouse kidneys were analyzed by H&E staining and PAS staining. The resected kidney tissue was immediately fixated with buffered 4% paraformaldehyde (in a PBS buffer) for histological analysis, embedded in paraffin, and sections were stained with by H&E or PAS. The necrosis and structural damages of nephrocytes were observed by a microscope.

[5] = cited from earlier work
male C57/BL6J mice [6] = test: CIRI (MCAO) mouse model: neurofunctional scoring (mNSS, Longa); format: in vivo
Source text: The experimental animals were male C57/BL6J mice aged 6 to 8 weeks and weighed 22 g to 26 g. Mice were anesthetized with isoflurane and placed on a supine heating pad. The skin was disinfected with iodine and 75% ethanol. A midline neck incision is made to expose the carotid artery […]. An external carotid artery (ECA) was isolated and occluded with two knots. An internal carotid artery (ICA) was isolated, and the MCA and ICA were clamped with microvascular clips. A small hole was cut in the ECA between the knot and a bifurcation point. A silicone rubber-coated, 30-mm-long, and 0.11-mm-diameter middle cerebral artery occlusion (MCAO) tether was introduced into the ICA. The artery was opened while sutures were inserted to block the blood vessel. A third knot on the ICA was closed and the suture was secured in a proper place. The mouse abdominal cavity was sutured, and the mice were placed in a heated cage for 30 min, and the wound was closed using small suture clips. The third knot was loosened, the filament was removed, and reperfusion was conducted for 24 h. The skin was closed and the mice were returned to individual cages.
as §2, with “neck incision” for “laparotomy”, “suture blockage;” for “clip occlusion;”
Neurofunctional scoring: the neurobehavioral functions were assessed using mNSS and Longa scores. The mNSS assessed neurological deficits through motor, reflex, sensory, and balance tests. Scores ranged from 0 (indicating no neurological deficit) to 18 (indicating the most severely-injured animal). The Longa score was determined as follows: 0 points, no neurological deficit; 1 point, the animals were unable to fully extend the contralateral forelimbs; 2 points, there was a tail scratching phenomenon when walking (circling to the opposite side); 3 points, a standing posture was unstable, falling to the opposite side; and 4 points, there was no spontaneous walking and loss of consciousness. A score of 0 to 2 was classified as mild nerve injury, while a score of 3 to 4 was classified as severe nerve injury.
as §3

[7] = i.p. injection before surgery, 30 min occlusion, 24 h reperfusion, vs model group

Substance: D-Glcp(4,6-pyr)-β-(1→3)-D-Glcp-β-(1→3)-D-Glcp-β-(1→6)-D-Glcp-β-(1→6)-D-Glcp-β-(1→4)-D-Glcp-β-(1→4)-D-Glcp-β-(1→3)-D-Galp [oligosaccharide riclinoctaose]
- necrotic area of liver parenchyma cells (H&E staining) (male C57/BL6J mice [1]; i.p. 20 and 40 mg/mL before surgery, 6 h reperfusion): reduction of a necrotic area of liver parenchyma cells
- liver tissue morphology / degree of damages (H&E staining) (male C57/BL6J mice [1]; treatment groups compared with sham-operation and model groups): the treatment groups and the sham-operation group have the closest tissue morphology, indicating a lesser degree of damages
- effect on intestinal microflora as a prebiotic (intestinal microflora): significantly improve the intestinal microflora
- ALT activity in serum (male C57/BL6J mice [2]): decrease the AST, ALT and LDH values in a dosage-dependent manner; also recorded: significant reduction of ALT, AST, LDH activities in serum
- AST activity in serum (male C57/BL6J mice [2]): decrease the AST, ALT and LDH values in a dosage-dependent manner; also recorded: significant reduction of ALT, AST, LDH activities in serum
- LDH activity in serum (male C57/BL6J mice [2]): decrease the AST, ALT and LDH values in a dosage-dependent manner; also recorded: significant reduction of ALT, AST, LDH activities in serum
- plasma BUN (male C57/BL6J mice [3]): significantly decreased
- plasma Creatinine (male C57/BL6J mice [3]): significantly decreased
- plasma LDH (male C57/BL6J mice [3]): significantly decreased
- area of cell necrosis in kidney (H&E staining) (male C57/BL6J mice [4]): the area of cell necrosis is reduced
- brush border shedding of renal tubule cells and degree of cell necrosis (PAS staining) (male C57/BL6J mice [4]): significantly reduced
- infiltration of inflammatory factors in kidney (H&E staining) (male C57/BL6J mice [4]): the infiltration of inflammatory factors is also reduced
- water solubility [5]: desirable water solubility
- neurobehaviour, low-dosage group (LRO) (male C57/BL6J mice [6]; 20 mg/mL i.p. 4 h to 6 h before surgery): cannot fully extend the contralateral forelimbs, the mice are not as severe as those in the model group
- neurobehaviour, high-dosage group (HRO) (male C57/BL6J mice [6]; 40 mg/mL i.p. 4 h to 6 h before surgery): behave similarly to those in the sham-operation group (sham) without neurological deficits
- neurological deficit by Longa score (male C57/BL6J mice [6]; [7]): the neurological deficit of mice can be significantly reduced
- neurological deficit by mNSS (male C57/BL6J mice [6]; [7]): the neurological deficit of mice can be significantly reduced
